Active and inactive are the calls of the source. How the calls were made is not given here.
Test system: CCRIS mutagenicity, Ames/micronucleus/aberration tests
Test: CCRIS mutagenicity studies
[1] = Test System: AMES SALMONELLA TYPHIMURIUM, Strain/Indicator: TA98, Metabolic Activation: NONE, Method: PREINCUBATION
[2] = Test System: AMES SALMONELLA TYPHIMURIUM, Strain/Indicator: TA98, Metabolic Activation: NONE, Method: STANDARD PLATE
[3] = Test System: AMES SALMONELLA TYPHIMURIUM, Strain/Indicator: TA98, Metabolic Activation: RAT, LIVER, S-9, AROCLOR 1254, Method: PREINCUBATION
[4] = Test System: AMES SALMONELLA TYPHIMURIUM, Strain/Indicator: TA100, Metabolic Activation: NONE, Method: STANDARD PLATE
[5] = Test System: AMES SALMONELLA TYPHIMURIUM, Strain/Indicator: TA100, Metabolic Activation: RAT, LIVER, S-9, AROCLOR 1254, Method: PREINCUBATION

CN=C=O
mutagenic call (Test System: AMES SALMONELLA TYPHIMURIUM, Strain/Indicator: TA97A, Metabolic Activation: NONE, Method: PREINCUBATION): inactive; negative
mutagenic call (Test System: AMES SALMONELLA TYPHIMURIUM, Strain/Indicator: TA97A, Metabolic Activation: RAT, LIVER, S-9, AROCLOR 1254, Method: PREINCUBATION): inactive; negative
mutagenic call (Test System: AMES SALMONELLA TYPHIMURIUM, Strain/Indicator: TA97A, Metabolic Activation: RAT, LIVER, S-9, BETA-NAPHTHOFLAVONE, Method: PREINCUBATION): inactive; negative
mutagenic call (Test System: AMES SALMONELLA TYPHIMURIUM, Strain/Indicator: TA97A, Metabolic Activation: RAT, LIVER, S-9, SODIUM PHENOBARBITONE, Method: PREINCUBATION): inactive; negative
mutagenic call (Test System: AMES SALMONELLA TYPHIMURIUM, Strain/Indicator: TA98, Metabolic Activation: HAMSTER, LIVER, S-9, AROCLOR 1254, Method: STANDARD PLATE): inactive; negative
mutagenic call [1]: inactive; negative
mutagenic call [2]: inactive; negative
mutagenic call [3]: inactive; negative
mutagenic call (Test System: AMES SALMONELLA TYPHIMURIUM, Strain/Indicator: TA98, Metabolic Activation: RAT, LIVER, S-9, AROCLOR 1254, Method: STANDARD PLATE): inactive; negative
mutagenic call (Test System: AMES SALMONELLA TYPHIMURIUM, Strain/Indicator: TA98, Metabolic Activation: RAT, LIVER, S-9, BETA-NAPHTHOFLAVONE, Method: PREINCUBATION): inactive; negative
mutagenic call (Test System: AMES SALMONELLA TYPHIMURIUM, Strain/Indicator: TA98, Metabolic Activation: RAT, LIVER, S-9, SODIUM PHENOBARBITONE, Method: PREINCUBATION): inactive; negative
mutagenic call (Test System: AMES SALMONELLA TYPHIMURIUM, Strain/Indicator: TA100, Metabolic Activation: HAMSTER, LIVER, S-9, AROCLOR 1254, Method: STANDARD PLATE): inactive; negative
mutagenic call [4]: inactive; negative
mutagenic call [5]: inactive; negative
mutagenic call (Test System: AMES SALMONELLA TYPHIMURIUM, Strain/Indicator: TA100, Metabolic Activation: RAT, LIVER, S-9, AROCLOR 1254, Method: STANDARD PLATE): inactive; negative
mutagenic call (Test System: AMES SALMONELLA TYPHIMURIUM, Strain/Indicator: TA100, Metabolic Activation: RAT, LIVER, S-9, BETA-NAPHTHOFLAVONE, Method: PREINCUBATION): inactive; negative
mutagenic call (Test System: AMES SALMONELLA TYPHIMURIUM, Strain/Indicator: TA100, Metabolic Activation: RAT, LIVER, S-9, SODIUM PHENOBARBITONE, Method: PREINCUBATION): inactive; negative
mutagenic call (Test System: AMES SALMONELLA TYPHIMURIUM, Strain/Indicator: TA102, Metabolic Activation: NONE, Method: PREINCUBATION): inactive; negative
mutagenic call (Test System: AMES SALMONELLA TYPHIMURIUM, Strain/Indicator: TA102, Metabolic Activation: RAT, LIVER, S-9, AROCLOR 1254, Method: PREINCUBATION): inactive; negative
mutagenic call (Test System: AMES SALMONELLA TYPHIMURIUM, Strain/Indicator: TA102, Metabolic Activation: RAT, LIVER, S-9, BETA-NAPHTHOFLAVONE, Method: PREINCUBATION): inactive; negative
mutagenic call (Test System: AMES SALMONELLA TYPHIMURIUM, Strain/Indicator: TA102, Metabolic Activation: RAT, LIVER, S-9, SODIUM PHENOBARBITONE, Method: PREINCUBATION): inactive; negative
mutagenic call (Test System: AMES SALMONELLA TYPHIMURIUM, Strain/Indicator: TA104, Metabolic Activation: RAT, LIVER, S-9, AROCLOR 1254, Method: PREINCUBATION): inactive; negative
mutagenic call (Test System: AMES SALMONELLA TYPHIMURIUM, Strain/Indicator: TA104, Metabolic Activation: RAT, LIVER, S-9, BETA-NAPHTHOFLAVONE, Method: PREINCUBATION): inactive; negative
mutagenic call (Test System: AMES SALMONELLA TYPHIMURIUM, Strain/Indicator: TA104, Metabolic Activation: RAT, LIVER, S-9, SODIUM PHENOBARBITONE, Method: PREINCUBATION): inactive; negative
mutagenic call (Test System: AMES SALMONELLA TYPHIMURIUM, Strain/Indicator: TA1535, Metabolic Activation: HAMSTER, LIVER, S-9, AROCLOR 1254, Method: STANDARD PLATE): inactive; negative
mutagenic call (Test System: AMES SALMONELLA TYPHIMURIUM, Strain/Indicator: TA1535, Metabolic Activation: NONE, Method: STANDARD PLATE): inactive; negative
mutagenic call (Test System: AMES SALMONELLA TYPHIMURIUM, Strain/Indicator: TA1535, Metabolic Activation: RAT, LIVER, S-9, AROCLOR 1254, Method: STANDARD PLATE): inactive; negative
mutagenic call (Test System: AMES SALMONELLA TYPHIMURIUM, Strain/Indicator: TA1537, Metabolic Activation: HAMSTER, LIVER, S-9, AROCLOR 1254, Method: STANDARD PLATE): inactive; negative
mutagenic call (Test System: AMES SALMONELLA TYPHIMURIUM, Strain/Indicator: TA1537, Metabolic Activation: NONE, Method: STANDARD PLATE): inactive; negative
mutagenic call (Test System: AMES SALMONELLA TYPHIMURIUM, Strain/Indicator: TA1537, Metabolic Activation: RAT, LIVER, S-9, AROCLOR 1254, Method: STANDARD PLATE): inactive; negative
mutagenic call (Test System: AMES SALMONELLA TYPHIMURIUM, Strain/Indicator: TA1538, Metabolic Activation: HAMSTER, LIVER, S-9, AROCLOR 1254, Method: STANDARD PLATE): inactive; negative
mutagenic call (Test System: AMES SALMONELLA TYPHIMURIUM, Strain/Indicator: TA1538, Metabolic Activation: NONE, Method: STANDARD PLATE): inactive; negative
mutagenic call (Test System: AMES SALMONELLA TYPHIMURIUM, Strain/Indicator: TA1538, Metabolic Activation: RAT, LIVER, S-9, AROCLOR 1254, Method: STANDARD PLATE): inactive; negative
mutagenic call (Test System: MOUSE LYMPHOMA, Strain/Indicator: L5178Y (TK+/TK-), Metabolic Activation: RAT, LIVER, S-9, AROCLOR 1254, Method: SUSPENSION/PLATE): inactive; negative. reevaluation of results: negative

c1cc(OCC2CO2)cc(OCC2CO2)c1 (stereo not given)
mutagenic call (End Point: IN VITRO CHROMOSOMAL ABERRATIONS, Test System: CHO CELLS, Metabolic Activation: NONE): active; positive
mutagenic call (End Point: IN VITRO CHROMOSOMAL ABERRATIONS, Test System: CHO CELLS, Metabolic Activation: RAT, LIVER, S-9, AROCLOR 1254): active; positive; weak response
mutagenic call (Test System: AMES SALMONELLA TYPHIMURIUM, Strain/Indicator: TA98, Metabolic Activation: HAMSTER, LIVER, S-9, AROCLOR 1254, Method: PREINCUBATION): inactive; negative
mutagenic call [1]: inactive; negative
mutagenic call [3]: inactive; negative
mutagenic call (Test System: AMES SALMONELLA TYPHIMURIUM, Strain/Indicator: TA100, Metabolic Activation: HAMSTER, LIVER, S-9, AROCLOR 1254, Method: PREINCUBATION): active; positive
mutagenic call (Test System: AMES SALMONELLA TYPHIMURIUM, Strain/Indicator: TA100, Metabolic Activation: NONE, Method: PREINCUBATION): active; positive
mutagenic call (Test System: AMES SALMONELLA TYPHIMURIUM, Strain/Indicator: TA100, Metabolic Activation: RAT, LIVER, S-9, AROCLOR 1254 (10%), Method: PREINCUBATION): active; positive
mutagenic call [5]: active; positive
mutagenic call (Test System: AMES SALMONELLA TYPHIMURIUM, Strain/Indicator: TA1535, Metabolic Activation: HAMSTER, LIVER, S-9, AROCLOR 1254 (10%), Method: PREINCUBATION): active; positive
mutagenic call (Test System: AMES SALMONELLA TYPHIMURIUM, Strain/Indicator: TA1535, Metabolic Activation: HAMSTER, LIVER, S-9, AROCLOR 1254, Method: PREINCUBATION): active; positive
mutagenic call (Test System: AMES SALMONELLA TYPHIMURIUM, Strain/Indicator: TA1535, Metabolic Activation: NONE, Method: PREINCUBATION): active; positive
mutagenic call (Test System: AMES SALMONELLA TYPHIMURIUM, Strain/Indicator: TA1535, Metabolic Activation: RAT, LIVER, S-9, AROCLOR 1254 (10%), Method: PREINCUBATION): active; positive
mutagenic call (Test System: AMES SALMONELLA TYPHIMURIUM, Strain/Indicator: TA1535, Metabolic Activation: RAT, LIVER, S-9, AROCLOR 1254, Method: PREINCUBATION): active; positive
mutagenic call (Test System: AMES SALMONELLA TYPHIMURIUM, Strain/Indicator: TA1537, Metabolic Activation: HAMSTER, LIVER, S-9, AROCLOR 1254, Method: PREINCUBATION): inactive; negative
mutagenic call (Test System: AMES SALMONELLA TYPHIMURIUM, Strain/Indicator: TA1537, Metabolic Activation: NONE, Method: PREINCUBATION): inactive; negative
mutagenic call (Test System: AMES SALMONELLA TYPHIMURIUM, Strain/Indicator: TA1537, Metabolic Activation: RAT, LIVER, S-9, AROCLOR 1254, Method: PREINCUBATION): inactive; negative
mutagenic call (Test System: MOUSE LYMPHOMA, Strain/Indicator: L5178Y (HPRT), Metabolic Activation: NONE, Method: SUSPENSION/PLATE): inactive; negative
mutagenic call (Test System: MOUSE LYMPHOMA, Strain/Indicator: L5178Y (TK+/TK-), Metabolic Activation: NONE, Method: SUSPENSION/PLATE): active; positive

O=Nc1cccc(-c2ccccc2)c1
mutagenic call [2]: active; positive
mutagenic call [4]: active; positive

— PubChem BioAssay AID1259407 (Chemical Carcinogenesis Research Information System (CCRIS), 2018)
